Literature values, collected in patent US20080104001A1, “ALGORITHM FOR ESTIMATION OF BINDING EQULIBRIA IN INCLUSION COMPLEXATION, HOST COMPOUNDS IDENTIFIED THEREBY AND COMPOSITIONS OF HOST COMPOUND AND PHARMACEUTICAL” (priority 2006, published 2008).
Where two headings read alike, the source gives them in different places.

Key:
[1] = for Log K(1:1) Measured: cross-validation set, literature values
[2] = by itself, without cyclodextrin
[3] = training set, published stability constants (Connors, 1995)
[4] = validation set, known binding constants

Cc1cccc(C)c1C [1,2,3-trimethylbenzene]
Log K(1:1) [1, 3]: 2.26

Cc1ccc(C)c(C)c1 [1,2,4-trimethylbenzene]
Log K(1:1) [1, 3]: 2.94

Oc1ccccc1O [1,2-benzenediol]
Log K(1:1) [1, 3]: 2.04

Oc1cccc(O)c1 [1,3-benzenediol]
Log K(1:1) [1, 3]: 2.04

Ic1ccc(I)cc1 [1,4 diiodobenzene]
Log K(1:1) Measured [1]: 3.18

Oc1ccc(O)cc1 [1,4-benzenediol]
Log K(1:1) [1, 3]: 2.09 | Log K(1:1) [1, 4]: 2.09

Brc1ccc(Br)cc1 [1,4-dibromobenzene]
Log K(1:1) [1, 3]: 2.97

Clc1ccc(Cl)cc1 [1,4-dichlorobenzene]
Log K(1:1) [1, 3]: 2.51

Fc1ccc(F)cc1 [1,4-difluorobenzene]
Log K(1:1) [1, 3]: 1.6

Cc1ccc(C)c2ccccc12 [1,4-dimethylnaphthalene]
Log K(1:1) [1, 3]: 2.54

Cc1cccc2c(C)cccc12 [1,5-dimethylnaphthalene]
Log K(1:1) [1, 3]: 2.3

O=C(O)C12CC3CC(CC(C3)C1)C2 [1-adamantanecarboxylic-acid]
Log K(1:1) [1, 3]: 5.81

O=C(O)C12CCC(CC1)C2 [1-bicyclo[2.2.1]heptanecarboxylic acid]
Log K(1:1) Measured [1]: 4.18

CC(C)c1ccccc1 [1-methylethylbenzene]
Log K(1:1) [1, 3]: 3.08

Cc1cccc2ccccc12 [1-methylnaphthalene]
Log K(1:1) [1, 3]: 2.64

Oc1cccc2ccccc12 [1-naphthol]
Log K(1:1) [1, 3]: 2.09

CCCCCCCCO [1-octanol]
Log K(1:1) [1, 3]: 3.29

CCCCCO [1-pentanol]
Log K(1:1) [1, 3]: 1.97

CC(C)(C)CO [2,2-dimethylpropanol]
Log K(1:1) [1, 4]: 2.69

Cc1ccc2ccccc2c1 [2-methylnaphthalene]
Log K(1:1) [1, 3]: 2.85

Cc1ccccc1O [2-methylphenol]
Log K(1:1) [1, 3]: 2.12

Oc1ccc2ccccc2c1 [2-naphthol]
Log K(1:1) [1, 3]: 2.77

CCCCCCC(C)O (stereo not shown) [2-octanol]
Log K(1:1) [1, 3]: 3.13

CCCC(C)O (stereo not shown) [2-pentanol]
Log K(1:1) [1, 3]: 1.65

O=C(O)c1cccc(O)c1 [3-hydroxybenzoic acid]
Log K(1:1) Measured [1]: 2.46

CC(C)CCO [3-methyl-1-butanol]
Log K(1:1) [1, 3]: 2.21

Cc1cccc(O)c1 [3-methylphenol]
Log K(1:1) [1, 3]: 2.34 | Log K(1:1) [1, 4]: 2.34

Nc1ccc(C(=O)O)cc1 [4-aminobenzoic acid]
Log K(1:1) Measured [1]: 2.70

CCC1(CC)C(=O)NC(=S)NC1=O [5,5-diethyl-2-thiobarbituric acid]
Log K(1:1) [1, 3]: 2.47

CCCCCCCC1(CC)C(=O)NC(=O)NC1=O [5-ethyl-5-heptylbarbituric acid]
Log K(1:1) [1, 3]: 3.61

CCCCCC1(CC)C(=O)NC(=O)NC1=O [5-ethyl-5-pentylbarbituric acid]
Log K(1:1) [1, 3]: 3.1

CCCC1(CC)C(=O)NC(=O)NC1=O [5-ethyl-5-propylbarbituric acid]
Log K(1:1) [1, 3]: 2.19

c1cc2c3c(cccc3c1)CC2 [Acenaphthene]
Log K(1:1) [1, 4]: 2.01

C1=Cc2cccc3cccc1c23 [Acenaphthylene]
Log K(1:1) [1, 3]: 2.41

CC(=O)Nc1ccc(O)cc1 [Acetaminophen]
Log K(1:1) [1, 4]: 2.03

c1ccc2nc3ccccc3cc2c1 [Acridine]
Log K(1:1) [1, 3]: 2.46

Nc1ccccc1 [Aniline]
Log K(1:1) [1, 3]: 1.89

COc1ccccc1 [Anisole]
Log K(1:1) [1, 3]: 2.14

NC(=O)N1c2ccccc2C=Cc2ccccc21 [Carbamazepine]
Log K(1:1) Measured [1]: 2.83

C[C@]12CCC(=O)C=C1CC[C@@H]1[C@@H]2C(=O)C[C@@]2(C)[C@H]1CC[C@]2(O)C(=O)CO [Cortisone]
Log K(1:1) [1, 3]: 3.39

CCC1(C2=CCCCC2)C(=O)NC(=O)NC1=O [Cyclobarbital]
Log K(1:1) [1, 3]: 3.11

OC1CCCCC1 [Cyclohexanol]
Log K(1:1) [1, 3]: 2.75

C1CCCCCCC1 [Cyclooctane]
Log K(1:1) [1, 3]: 3.23

OC1CCCCCCC1 [Cyclooctanol]
Log K(1:1) [1, 4]: 3.3

O=C(O)Cc1ccccc1Nc1c(Cl)cccc1Cl [Diclofenac]
Log K(1:1) [1, 3]: 2.18

CN[C@@H](C)[C@H](O)c1ccccc1 [Ephedrine]
Log K(1:1) Measured [1]: 2.25 | Log K(1:1) [1, 4]: 2.25

FF [Fluorine]
Log K(1:1) [1, 4]: 3.13

CCCCCCC [Heptane]
Log K(1:1) [1, 3]: 1.84

C[C@]12CCC(=O)C=C1CC[C@@H]1[C@@H]2[C@@H](O)C[C@@]2(C)[C@H]1CC[C@]2(O)C(=O)CO [Hydrocortisone]
Log K(1:1) [1, 4]: 3.46

CCN(CC)c1ccccc1 [N,N-diethylaniline]
Log K(1:1) [1, 3]: 2.96

c1ccc2ccccc2c1 [Naphthalene]
Log K(1:1) [1, 4]: 2.87

O=C1NC(=O)C(c2ccccc2)(c2ccccc2)N1 [Phenytoin]
Log K(1:1) [1, 3]: 2.93

C[C@]12C=CC(=O)C=C1CC[C@@H]1[C@@H]2[C@@H](O)C[C@@]2(C)[C@H]1CC[C@]2(O)C(=O)CO [Prednisolone]
Log K(1:1) [1, 3]: 3.45

CC(=O)[C@H]1CC[C@H]2[C@@H]3CCC4=CC(=O)CC[C@]4(C)[C@H]3CC[C@]12C [Progesterone]
Log K(1:1) [1, 3]: 4.28

C=CCC1(C(C)CCC)C(=O)NC(=O)NC1=O (stereo not shown) [Secobarbital]
Log K(1:1) [1, 3]: 3.26

C[C@]12CC[C@H]3[C@@H](CCC4=CC(=O)CC[C@@]43C)[C@@H]1CC[C@@H]2O [Testosterone]
Log K(1:1) [1, 3]: 3.8

C[C@]12C=CC(=O)C=C1CC[C@H]1[C@@H]3C[C@@H](O)[C@](O)(C(=O)CO)[C@@]3(C)C[C@H](O)[C@@]12F [Triamcinolone]
Log K(1:1) [1, 3]: 3.37

CC(=O)Oc1ccccc1C(=O)O [acetylsalicylic acid]
Log K(1:1) [1, 4]: 3.23

c1ccc2cc3ccccc3cc2c1 [anthracene]
Log K(1:1) [1, 3]: 3.41

c1ccccc1 [benzene]
Log K(1:1) [1, 3]: 2.17

Nc1ccc(-c2ccc(N)cc2)cc1 [benzidine]
Log K(1:1) Measured [1]: 3.36

c1ccc2c(c1)cc1ccc3cccc4ccc2c1c34 [benzo[a]pyrene]
Log K(1:1) [1, 3]: 3.34

O=C(c1ccccc1)c1ccccc1 [benzophenone]
Log K(1:1) [1, 3]: 3.08

OCc1ccccc1 [benzyl alcohol]
Log K(1:1) [1, 3]: 1.7

CCCCC(=O)O[C@]1(C(=O)CO)[C@@H](C)C[C@H]2[C@@H]3CCC4=CC(=O)C=C[C@]4(C)[C@@]3(F)[C@@H](O)C[C@@]21C [betamethasone-17-valerate]
Log K(1:1) [1, 3]: 3.32

Brc1ccccc1 [bromobenzene]
Log K(1:1) [1, 3]: 2.49

CCCCOC(=O)c1ccc(O)cc1 [butylparaben]
Log K(1:1) [1, 3]: 3.32

Clc1ccccc1 [chlorobenzene]
Log K(1:1) [1, 3]: 2.2

O=C(O)C=Cc1ccccc1 [cinnamic acid]
Log K(1:1) [1, 4]: 2.57

CN1C(=O)CC(=O)N(c2ccccc2)c2cc(Cl)ccc21 [clobazam]
Log K(1:1) Measured [1]: 1.73

O=C1CN=C(c2ccccc2Cl)c2cc([N+](=O)[O-])ccc2N1 [clonazepam]
Log K(1:1) Measured [1]: 1.9

CC(=O)OCC(=O)[C@@]1(O)CC[C@H]2[C@@H]3CCC4=CC(=O)CC[C@]4(C)[C@H]3C(=O)C[C@@]21C [cortisone acetate]
Log K(1:1) [1, 3]: 3.62

OC1CCC1 [cyclobutanol]
Log K(1:1) Measured [1]: 1.18

C1CCCCC1 [cyclohexane]
Log K(1:1) [1, 3]: 2.19

O=C1CCCCC1 [cyclohexanone]
Log K(1:1) [1, 3]: 2.71

C1CCCC1 [cyclopentane]
Log K(1:1) [1, 3]: 1.95

CCCCCCCCCC(=O)O [decanoic acid]
Log K(1:1) [1, 4]: 3.97

c1ccc(Nc2ccccc2)cc1 [diphenylamine]
Log K(1:1) [1, 3]: 3.03

CCOC(=O)c1ccc(N)cc1 [ethyl-p-aminobenzoate]
Log K(1:1) [1, 4]: 2.69

Fc1ccccc1 [fluorobenzene]
Log K(1:1) [1, 3]: 1.85

CC(C(=O)O)c1ccc(-c2ccccc2)c(F)c1 (stereo not shown) [flurbiprofen]
Log K(1:1) [1, 3]: 3.71

CC(=O)OCC(COC(C)=O)OC(C)=O [glyceryl triacetate]
Log K(1:1) [1, 4]: 1.15

CCCCCC(=O)O [hexanoic acid]
Log K(1:1) [1, 3]: 2.47

CC(=O)OCC(=O)[C@@]1(O)CC[C@H]2[C@@H]3CCC4=CC(=O)CC[C@]4(C)[C@H]3[C@@H](O)C[C@@]21C [hydrocortisone-21-acetate]
Log K(1:1) [1, 4]: 3.51

COc1ccc2c(c1)c(CC(=O)O)c(C)n2C(=O)c1ccc(Cl)cc1 [indomethacin]
Log K(1:1) Measured [1]: 2.72

Ic1ccccc1 [iodobenzene]
Log K(1:1) [1, 3]: 2.9

CCC(C)n1ncn(-c2ccc(N3CCN(c4ccc(OCC5COC(Cn6cncn6)(c6ccc(Cl)cc6Cl)O5)cc4)CC3)cc2)c1=O (stereo not shown) [itraconazole]
aqueous solubility [2]: less than 0.1 microgram/mL

CCC1(CC)C(=O)NC(=O)N(C)C1=O [metharbital]
Log K(1:1) [1, 3]: 2.36

C1COCCN1 [morpholine]
Log K(1:1) [1, 3]: 1.23

c1ccc2cc3cc4ccccc4cc3cc2c1 [naphthacene]
Log K(1:1) [1, 3]: 3.53

O=C(O)c1ccc(O)cc1 [p-hydroxybenzoic-acid]
Log K(1:1) Measured [1]: 3.03 | Log K(1:1) [1, 3]: 3.03

Cc1ccc(C(=O)O)cc1 [p-toluic acid]
Log K(1:1) [1, 4]: 3.23

c1ccc2c(c1)ccc1ccccc12 [phenanthrene]
Log K(1:1) [1, 3]: 3.18

O=C1OC(c2ccc(O)cc2)(c2ccc(O)cc2)c2ccccc21 [phenolphthalein]
Log K(1:1) [1, 3]: 4.56

CC(=O)OCC(=O)[C@@]1(O)CC[C@H]2[C@@H]3CCC4=CC(=O)C=C[C@]4(C)[C@H]3[C@@H](O)C[C@@]21C [prednisolone-21-acetate]
Log K(1:1) [1, 3]: 3.76

CCCOC(=O)c1ccc(O)cc1 [propylparaben]
Log K(1:1) [1, 3]: 2.97

c1cc2ccc3cccc4ccc(c1)c2c34 [pyrene]
Log K(1:1) [1, 3]: 2.45

O=C(O)c1ccccc1O [salicylic-acid]
Log K(1:1) [1, 3]: 2.63

ClC(Cl)(Cl)Cl [tetrachloromethane]
Log K(1:1) [1, 3]: 2.18
